Values of other authors in patent US20220143126A1, “SYNERGISTIC COMBINATION OF PHYTOACTIVES” (priority 2019, published 2022).

Conditions: rats, concomitant administration of curcumin with piperine

increase in bioavailability: 150%
Structure (SMILES): COc1cc(/C=C/C(=O)CC(=O)/C=C/c2ccc(O)c(OC)c2)ccc1O [curcumin]
